Like-named read-outs stand apart in the source and are kept apart here. One block for each molecule: values may come before it.
What was measured:
Caco2 monolayer [1] = details: for glutathione diffusion across Caco2: human, 10 mM
Procedure: (§1) Again, undyed isotonic DPBS as receiver and donor buffer rather than HBSS was used due to interference with HBSS components in the HPLC. […] Samples were taken at 15 minute intervals for 90 minutes and replaced with fresh isotonic DPBS. Samples were taken from donor chamber at time 0 and at 90 minutes.

Caco2 monolayer [2] = assay: Iso-leucine permeability through Caco2 monolayer with/without TSC (Example IX); assay type: in vitro ADME, human; details: for iso-leucine diffusion across Caco2: 10 mM in DPBS
Procedure: (§2) Undyed isotonic DPBS was used as receiver and donor buffer rather than HBSS due to interference with HBSS components and Valine in the HPLC. In brief 3 mM 10 mM Isoleucine or Valine in DPBS alone or with 10 mM trisodium citrate was added to the donor chamber of each of 3 side by side diffusion cells with a confluent Caco 2 Monolayer between (TEER˜900 Ohm*cm2). […] Below are the results of this study in table form, which are graphically illustrated in FIG. 16.

Caco 2 Monolayer = assay: L-Arginine and L-Citrulline diffusion across Caco2 monolayer with/without TSC (Example III); assay type: in vitro ADME, human; details: for arginine diffusion across Caco2: human, 10 mM; for citrulline diffusion across Caco2: 10 mM in DPBS
Procedure: Thereafter, further diffusion studies were undertaken using a Caco-2 cellular model similar to that described in connection with Example II above. Four formulations were studied, with chemicals present at 10 mM: […]
For these experiments undyed isotonic DPBS was used as the receiver and donor buffer rather than HBSS due to interference with HBSS components in the HPLC. […] Below are the results of these studies.

Caco2 monolayer [3] = assay type: in vitro ADME, human; details: for arginine diffusion across Caco2: human, 10 mM
Source text: In further experiments were undertaken using a Caco-2 cellular model similar to that described in connection with Example II above. […] For these experiments undyed isotonic DPBS was used as receiver and donor buffer rather than HBSS due to interference with HBSS components in the HPLC. […] The results of these studies in graphical form are illustrated in FIGS. 6 and 7.

Caco2 monolayer [4] = assay: L-Citrulline and L-Leucine permeability through Caco2 monolayer with/without TSC (Example V); assay type: in vitro ADME, human; details: for citrulline diffusion across Caco2: 10 mM each in DPBS
Procedure: as §1, with “isotonic DPBS was used as receiver” for “isotonic DPBS as receiver”, “than HBSS due to” for “than HBSS was used due to”

Caco-2 monolayer = assay: Leucine permeation across Caco-2 model intestinal barrier (Example I); assay type: in vitro ADME, human
Source text: Initially, in order to make a meaningful evaluation of sodium transport of branched-chain amino acids across eukaryotic mucosal cells of the human digestive tract, the inventors elected to test leucine transport using the Caco-2 monolayer model similar to that described by Dash, et al. in “Evaluation of Creatine Transport Using Caco-2 Monolayers” id. The tests were undertaken using a Caco-2 cells so as to more closely approximate transport of creatine and branched-chain amino acids across mucosal cell membranes in vivo than might be reflected in other utilizing non-human cell sources or non-mucosa cell sources. In the permeation tests illustrated herein, simulated gastric and intestinal buffers were made with 0.2 normal (N) NaOH, made by mixing 1 g NaOH as needed with 125 mL deionized water. To simulate intestinal fluid without enzymes, 6.8 g monobasic potassium phosphate were mixed in 77 mL 0.2 N sodium hydroxide, and pH adjusted to 6.8±0.1 using NaOH or HCl, as needed. Thereafter, the solution was diluted to 1 L with deionized water, with a final pH of about 6.8±0.1. To simulate gastric fluid without enzymes, 2.0 g sodium chloride was added to 7.0 mL concentrated HCl, and then diluted to 1 L with deionized water. The pH was approximately 1.2
A repetition in a series of three repetitions was then undertaken to examined the changes in permeation in the presence of a different form of sodium as compared to leucine alone in Hank's Balanced salt solution across a Caco-2 model intestinal barrier (TEER≥1000 ohm*cm2). […] Leucine permeation across the Caco-2 monolayer was measured at 15, 30, 45, 60, 75 and 90 minutes after test initiation in milligrams of leucine per centimeter2 (mg/cm2). Data is summarized in Table I below and illustrated in FIG. 1.

Caco2 monolayer [5] = assay: Sarcosine and L-Leucine permeability through Caco2 monolayer with/without TSC (Example VI); assay type: in vitro ADME, human; details: for sarcosine diffusion across Caco2: 10 mM each in DPBS, estimation by subtraction
Source text: On analysis it was discovered that a peak in the receiver side samples which had not interfered with previous samples eluted at the same time as the Sarcosine. The results were adjusted by averaging this peak from time points in previous studies and accordingly, the results represent an estimation by subtraction.

Caco2 monolayer [6] = assay: Valine permeability across Caco2 monolayer with/without TSC (Example X); assay type: in vitro ADME, human; details: for valine diffusion across Caco2: 10 mM in DPBS
Procedure: as §2, with “mM” for “mM Isoleucine or”, “Data is summarized below” for “Below are the results of this study”, “Table X and” for “table form, which are”, “17.” for “16.”

Caco2 monolayer [7] = assay: Creatine and leucine diffusion across Caco-2 monolayer, sodium/citrate sources (Example II); assay type: in vitro ADME, human; details: added at 10 mM to creatine monohydrate and leucine
Procedure: More particularly, after 21 days of growth in Corning® Transwell 6 well plat, trans-epithelial electrical resistance (TEER) was measured across the Caco2 monolayer using an EVOM II TEER meter with an Endohm 24SNAP measuring chambers. Cells were considered ready for use if the average TEER value reached approximately 900 Ohm*cm2. The Caco2 monolayer was then equilibrated in DPBS at 37° C. for 15 minutes. The apical solution was then removed and replaced with the various solutions to be tested. Basolateral chambers were sampled at 15, 30, 45, 60, 75 and 90 minutes and replaced with fresh DPBS. All samples were filtered at 0.45 μm and examined by HPLC. The HPLC analysis utilized a 250 mm×4.6 mm, 5 μm Thermo Scientific BDS Hypersil base deactivated C18 column. The mobile phase consisted of 0.5 M ammonium sulphate at a flow rate of 1.5 m/min. Sample detection was performed at 206 nm using a photodiode array. For this Example II, four formulations were studied, with chemicals present at 10 mM:
For the experiments in this study samples from each formulation were monitored apical to basolateral through a Caco-2 membrane registering an average TEER of 1650 Ohm*cm^2.

Structure (SMILES): N[C@@H](CCC(=O)N[C@@H](CS)C(=O)NCC(=O)O)C(=O)O [Glutathione alone, Glutathione]
Glutathione permeation in the presence of trisodium citrate (Caco2 monolayer [1]; Caco-2): significantly increased | glutathione diffusion across Caco2 (Caco2 monolayer [1]; Caco-2, 15 min): 0.177 μM/cm^2 | glutathione diffusion across Caco2 (Caco2 monolayer [1]; Caco-2, 30 min): 0.467 μM/cm^2 | glutathione diffusion across Caco2 (Caco2 monolayer [1]; Caco-2, 45 min): 0.731 μM/cm^2 | glutathione diffusion across Caco2 (Caco2 monolayer [1]; Caco-2, 60 min): 0.977 μM/cm^2 | glutathione diffusion across Caco2 (Caco2 monolayer [1]; Caco-2, 75 min): 1.227 μM/cm^2 | glutathione diffusion across Caco2 (Caco2 monolayer [1]; Caco-2, 90 min): 1.456 μM/cm^2

Structure (SMILES): N=C(N)NCCC[C@H](N)C(=O)O [L-Arginine alone, L-Arginine]
arginine diffusion across Caco2 (Caco 2 Monolayer; Caco-2, 15 min): 0.988 μM/cm^2 | arginine diffusion across Caco2 (Caco 2 Monolayer; Caco-2, 30 min): 1.453 μM/cm^2 | arginine diffusion across Caco2 (Caco 2 Monolayer; Caco-2, 45 min): 2.033 μM/cm^2 | arginine diffusion across Caco2 (Caco 2 Monolayer; Caco-2, 60 min): 2.578 μM/cm^2 | arginine diffusion across Caco2 (Caco 2 Monolayer; Caco-2, 75 min): 3.005 μM/cm^2 | arginine diffusion across Caco2 (Caco 2 Monolayer; Caco-2, 90 min): 3.448 μM/cm^2 | L-Arginine permeability in the presence of trisodium citrate (Caco2 monolayer [3]; Caco-2): enhanced | arginine diffusion across Caco2 (Caco2 monolayer [3]; Caco-2, 15 min): 1.007 μM/cm^2 | arginine diffusion across Caco2 (Caco2 monolayer [3]; Caco-2, 30 min): 1.511 μM/cm^2 | arginine diffusion across Caco2 (Caco2 monolayer [3]; Caco-2, 45 min): 1.999 μM/cm^2 | arginine diffusion across Caco2 (Caco2 monolayer [3]; Caco-2, 60 min): 2.432 μM/cm^2 | arginine diffusion across Caco2 (Caco2 monolayer [3]; Caco-2, 75 min): 2.982 μM/cm^2 | arginine diffusion across Caco2 (Caco2 monolayer [3]; Caco-2, 90 min): 3.237 μM/cm^2

Structure (SMILES): CNCC(=O)O [Sarcosine alone, Sarcosine]
Sarcosine permeability in the presence of TSC (Caco2 monolayer [5]): enhanced | sarcosine diffusion across Caco2 (Caco2 monolayer [5]; 15 min): 0.496 μM/cm^2 | sarcosine diffusion across Caco2 (Caco2 monolayer [5]; 30 min): 0.405 μM/cm^2 | sarcosine diffusion across Caco2 (Caco2 monolayer [5]; 45 min): 0.974 μM/cm^2 | sarcosine diffusion across Caco2 (Caco2 monolayer [5]; 60 min): 1.423 μM/cm^2 | sarcosine diffusion across Caco2 (Caco2 monolayer [5]; 75 min): 2.102 μM/cm^2 | sarcosine diffusion across Caco2 (Caco2 monolayer [5]; 90 min): 1.801 μM/cm^2

Structure (SMILES): O=C1O[C@H]([C@@H](O)CO)C([O-])=C1O.[Na+] [sodium ascorbate]
permeation of leucine in the presence of the sodium source (Caco-2 monolayer; compared to leucine alone / sodium ascorbate): slight increase

Structure (SMILES): [Cl-].[Na+] [sodium chloride]
effect on leucine permeability (Caco2 monolayer [7]): did produce an effect | effect on permeability of creatine monohydrate (Caco2 monolayer [7]): enhanced

Continued, in another order:

iso-leucine diffusion across Caco2 (Caco2 monolayer [2]; 15 min): 0.271 μM/cm^2 | iso-leucine diffusion across Caco2 (Caco2 monolayer [2]; 30 min): 0.614 μM/cm^2 | iso-leucine diffusion across Caco2 (Caco2 monolayer [2]; 45 min): 0.978 μM/cm^2 | iso-leucine diffusion across Caco2 (Caco2 monolayer [2]; 60 min): 1.333 μM/cm^2 | iso-leucine diffusion across Caco2 (Caco2 monolayer [2]; 75 min): 1.748 μM/cm^2 | iso-leucine diffusion across Caco2 (Caco2 monolayer [2]; 90 min): 2.078 μM/cm^2
Structure (SMILES): CC[C@H](C)[C@H](N)C(=O)O [Iso-leucine alone, iso-leucine]
permeability shift as a result of the addition of trisodium citrate (Caco2 monolayer [2]): substantially similar permeability shift and overall permeability increase to that exhibited by leucine

L-Citrulline change in permeability in the presence of TSC (Caco 2 Monolayer; 10 mM TSC): did not show any significant change | citrulline diffusion across Caco2 (Caco 2 Monolayer; 15 min): 2.281 μM/cm^2 | citrulline diffusion across Caco2 (Caco 2 Monolayer; 30 min): 1.428 μM/cm^2 | citrulline diffusion across Caco2 (Caco 2 Monolayer; 45 min): 1.415 μM/cm^2 | citrulline diffusion across Caco2 (Caco 2 Monolayer; 60 min): 2.191 μM/cm^2 | citrulline diffusion across Caco2 (Caco 2 Monolayer; 75 min): 2.457 μM/cm^2 | citrulline diffusion across Caco2 (Caco 2 Monolayer; 90 min): 2.893 μM/cm^2 | effect on L-Citrulline permeability by TSC or L-Leucine (Caco2 monolayer [4]): no significant effect | citrulline diffusion across Caco2 (Caco2 monolayer [4]; 15 min): 0.846 μM/cm^2 | citrulline diffusion across Caco2 (Caco2 monolayer [4]; 30 min): 1.174 μM/cm^2 | citrulline diffusion across Caco2 (Caco2 monolayer [4]; 45 min): 1.906 μM/cm^2 | citrulline diffusion across Caco2 (Caco2 monolayer [4]; 60 min): 2.381 μM/cm^2 | citrulline diffusion across Caco2 (Caco2 monolayer [4]; 75 min): 2.699 μM/cm^2 | citrulline diffusion across Caco2 (Caco2 monolayer [4]; 90 min): 3.300 μM/cm^2
Structure (SMILES): NC(=O)NCCC[C@H](N)C(=O)O [L-Citrulline alone, L-Citrulline]

Leucine permeation across Caco-2 monolayer (Caco-2 monolayer; human, Caco-2, 15 min): 0.036 mg/cm2 | Leucine permeation across Caco-2 monolayer (Caco-2 monolayer; human, Caco-2, 30 min): 0.052 mg/cm2 | Leucine permeation across Caco-2 monolayer (Caco-2 monolayer; human, Caco-2, 45 min): 0.078 mg/cm2 | Leucine permeation across Caco-2 monolayer (Caco-2 monolayer; human, Caco-2, 60 min): 0.106 mg/cm2 | Leucine permeation across Caco-2 monolayer (Caco-2 monolayer; human, Caco-2, 75 min): 0.128 mg/cm2 | Baseline adj for Leucine w/o Na (Caco-2 monolayer; human, Caco-2, 90 min): 0.00 mg/cm2 | Leucine permeation across Caco-2 monolayer (Caco-2 monolayer; human, Caco-2, 90 min): 0.151 mg/cm2 | L-Leucine permeability in the presence of trisodium citrate (Caco2 monolayer [3]; Caco-2): enhanced | L-Leucine permeability in the presence of TSC (Caco2 monolayer [4]; with L-Citrulline): enhanced | L-Leucine permeability in the presence of TSC (Caco2 monolayer [5]; in the presence of sarcosine): enhanced | effect on the permeability of glutathione (Caco2 monolayer [1]; Caco-2): no noticeable effect | permeability of Leucine in the presence of trisodium citrate (Caco2 monolayer [1]; Caco-2): enhanced
Structure (SMILES): CC(C)C[C@H](N)C(=O)O [Leucine]

valine diffusion across Caco2 (Caco2 monolayer [6]; 15 min): 1.388 μM/cm^2 | valine diffusion across Caco2 (Caco2 monolayer [6]; 30 min): 1.431 μM/cm^2 | valine diffusion across Caco2 (Caco2 monolayer [6]; 45 min): 1.537 μM/cm^2 | valine diffusion across Caco2 (Caco2 monolayer [6]; 60 min): 1.682 μM/cm^2 | valine diffusion across Caco2 (Caco2 monolayer [6]; 75 min): 1.841 μM/cm^2 | valine diffusion across Caco2 (Caco2 monolayer [6]; 90 min): 2.081 μM/cm^2
Structure (SMILES): CC(C)[C@H](N)C(=O)O [Valine alone, Valine]
permeability shift in the presence of trisodium citrate (Caco2 monolayer [6]; compared to iso-leucine and leucine): significantly greater permeability shift and overall higher permeability

Source: patent US11246846B2, “Trisodium citrate compositions having enhanced uptake across digestive mucosa” (priority 2017, dated 2022)
